Among the data in patent publication US8222417B2, “Compound having 11β-HSD1 inhibitory activity” (Taisho Pharmaceutical Co., Ltd, priority 2007, dated 2012) are IC50 values, retold here.

pIC50: −log10 of the molar value. Counter-ions that a name gives are not always drawn.

The assay deals with T1, 11β-HSD1 (Homo sapiens, UniProt P28845).
T1 construct: human liver microsome (enzyme source, Tissue Transformation Technologies); tissue Tissue Transformation Technologies; host or cells: human liver microsomes
T1 sequence (P28845 whole entry): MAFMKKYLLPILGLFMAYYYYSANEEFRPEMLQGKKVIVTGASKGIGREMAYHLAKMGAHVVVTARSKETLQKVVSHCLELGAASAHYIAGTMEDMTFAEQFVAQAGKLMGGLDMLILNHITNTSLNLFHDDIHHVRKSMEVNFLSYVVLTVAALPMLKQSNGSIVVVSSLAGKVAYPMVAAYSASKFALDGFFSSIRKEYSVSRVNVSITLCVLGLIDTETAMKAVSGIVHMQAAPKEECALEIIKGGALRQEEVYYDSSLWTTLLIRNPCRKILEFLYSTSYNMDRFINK
The assay is described as follows: 11β-HSD1 inhibition test (human liver microsome, HTRF cortisol detection). Conditions: human liver microsome as enzyme source; cortisone 100 nM; 20° C., 80 minutes; generated cortisol quantified by HTRF. Format: biochemical. As to the method: Test Example [11β-HSD1 Inhibition Test]
Test Compounds were Evaluated as Follows.
11β-HSD1 enzyme reaction was performed in a reaction solution of 100 μl total volume using 96-well polypropylene microplates. The reaction solution was prepared in 30 mM Tris-HCl (pH 7.4)/1 mM EDTA buffer to contain NADPH at a final concentration of 100 μM, G6P at a final concentration of 1 mM, human liver microsome (enzyme source, Tissue Transformation Technologies) at a final concentration of 0.8 μg/ml and 10 μl of a test compound dissolved in DMSO. The enzyme reaction was initiated by addition of cortisone at a final concentration of 100 nM. After incubation at 20° C. for 80 minutes, 10 μl of 1 mM 18β glycyrrhetinic acid, which is a non-specific inhibitor, was added to stop the reaction. Next, the amount of generated cortisol was quantified with a detection kit (Sceti Medical Labo K.K., Japan) according to the HTRF (Homogeneous Time-Resolved Fluorescence) method. This system detects fluorescence resonance energy transfer between europium-labeled anti-cortisol antibody and XL665-labeled cortisol. Upon addition of unlabeled cortisol, binding signals will be attenuated due to competitive reaction. Based on this principle, the amount of cortisol generated by the enzyme reaction was evaluated using a standard curve obtained from samples with known concentrations of cortisol included in the kit. The HTRF reaction was performed in 96-well half area microplates as follows: to 30 μl enzyme reaction solution, an anti-cortisol antibody solution (15 μl) and an XL665-labeled cortisol solution (15 μl) included in the kit were added, and the plates were vortexed at room temperature for 1 hour and further allowed to stand at 20° C. for 1 hour. 40 μl of this reaction solution was transferred to 384-well microplates and measured for its fluorescence. 18β Glycyrrhetinic acid was added to wells before initiation of the enzyme reaction and the amount of cortisol generated in these wells was used as a background level. Test compounds were evaluated using serial dilutions at a common ratio of 3 to calculate their IC50 values, assuming that the amount of cortisol generated in wells containing no test compound was set to 100% enzyme activity.
(Liver microsomes are vesicles of endoplasmic reticulum, rich in cytochrome P450 enzymes.)
Usually pIC50 stands for the IC50 on a negative log10 scale, so that one unit is a factor of ten. A higher pIC50 goes with a small IC50. Take `O=C(N[C@H]1C2CC3CC1C[C@](O)(C3)C2)N1CCCCc2ccccc21` [Compound 13, N-(E-1-hydroxyadamantan-4-yl)-2,3,4,5-tetrahydro-1H-1-benzoazepine-1-carboxamide]: the negative logarithm of the IC50 (pIC50) is 8.92.

On to `O=C(OC1C2CC3CC1CC(O)(C3)C2)N1CCOc2ccccc21` (stereo not shown) [Compound 42b, E-5-hydroxyadamantan-2-yl 2,3-dihydro-4H-1,4-benzoxazine-4-carboxylate], for which the negative logarithm of the IC50 (pIC50) was 8.34.

`O=C(NC1C2CC3CC1CC(C(=O)O)(C3)C2)N1CCCc2ccccc21` (stereo not shown) [Compound 10b, E-4-[(3,4-dihydroquinolin-1(2H)-ylcarbonyl)amino]adamantane-1-carboxylic acid]: the negative-log IC50 (pIC50) was 7.76.

Consider `O=C(N[C@H]1C2CC3CC1C[C@](O)(C3)C2)N1CCCc2cccc(F)c21` [Compound 4, 8-fluoro-N-(E-1-hydroxyadamantan-4-yl)-3,4-dihydroquinoline-1(2H)-carboxamide], for which the negative-log IC50 (pIC50) is 8.96.

Turning to `Cc1ccc2c(c1)N(C(=O)OC1C3CC4CC1CC(O)(C4)C3)CCO2` (stereo not shown) [Compound 43b, E-5-hydroxyadamantan-2-yl 6-methyl-2,3-dihydro-4H-1,4-benzoxazine-4-carboxylate], the pIC50 was 8.49. Compared with the last molecule, the pIC50 is 0.47 log units lower.

As to `O=C(N[C@H]1C2CC3CC1C[C@](O)(C3)C2)N1CCCc2ccc(F)cc21` [Compound 3, 7-fluoro-N-(E-1-hydroxyadamantan-4-yl)-3,4-dihydroquinoline-1(2H)-carboxamide], the pIC50 is 9.00.

On to `CN(C(=O)N1CCCc2ccccc21)[C@H]1C2CC3CC1C[C@](O)(C3)C2` [Compound A-7, N-[E-1-hydroxyadamantan-4-Y^1]-N-methyl-3,4-dihydroquinoline-1(2H)-carboxamide], for which the pIC50 was 8.02. This pIC50 is 0.98 log units lower than that of the molecule before.

Regarding `NC(=O)[C@]12CC3CC(C1)[C@@H](NC(=O)N1CCOc4ccc(F)cc41)C(C3)C2` [Compound 38, N-(E-5-carbamoyladamantan-2-yl)-6-fluoro-2,3-dihydro-4H-1,4-benzoxazine-4-carboxamide], the pIC50 was 9.22. This pIC50 lies 1.20 log units higher than the previous one.

The molecule `O=C(OC1C2CC3CC1CC(O)(C3)C2)N1CCOc2ccc(F)cc21` (stereo not shown) [Compound 44b, E-5-hydroxyadamantan-2-yl 6-fluoro-2,3-dihydro-4H-1,4-benzoxazine-4-carboxylate] gave a pIC50 of 8.02.

In turn, `O=C(N[C@H]1C2CC3CC1C[C@](O)(C3)C2)N1CCNc2ccccc21` [Compound 32, N-(E-5-hydroxyadamantan-2-yl)-3,4-dihydroquinoxaline-1(2H)-carboxamide hydrochloride] had a pIC50 of 8.85.

`Cc1ccc2c(c1)N(C(=O)N[C@H]1C3CC4CC1C[C@](C(N)=O)(C4)C3)CCO2` [Compound 39, N-(E-5-carbamoyladamantan-2-yl)-6-methyl-2,3-dihydro-4H-1,4-benzoxazine-4-carboxamide] gave a pIC50 of 9.22.

As to `O=C(N[C@H]1C2CC3CC1C[C@](O)(C3)C2)N1CCOc2ccc(C(F)(F)F)cc21` [Compound 26, N-(E-5-hydroxyadamantan-2-yl)-6-(trifluoromethyl)-2,3-dihydro-4H-1,4-benzoxazine-4-carboxamide], the pIC50 was 8.47.

Consider `O=C(N[C@H]1C2CC3CC1C[C@](O)(C3)C2)N1CCOc2ccccc21` [Compound 16, N-(E-1-hydroxyadamantan-4-yl)-2,3-dihydro-4H-1,4-benzoxazine 4-carboxamide], for which the pIC50 is 8.82. Against the preceding molecule, the pIC50 is 0.35 log units higher.

The molecule `Cc1ccc2c(c1)N(C(=O)N[C@H]1C3CC4CC1C[C@](O)(C4)C3)CCO2` [Compound 17, N-(E-1-hydroxyadamantan-4-yl)-6-methyl-2,3-dihydro-4H-1,4-benzoxazine 4-carboxamide] showed a pIC50 of 9.10.

On to `O=C(N[C@H]1C2CC3CC1C[C@](O)(C3)C2)N1CCOc2cc(F)ccc21` [Compound 24, 7-fluoro-N-(E-5-hydroxyadamantan-2-yl)-2,3-dihydro-4H-1,4-benzoxazine-4-carboxamide], for which the pIC50 is 8.96.

For the molecule `O=C(NC1C2CC3CC(C2)CC1C3)N1CCOc2ccccc21` (stereo not shown) [Compound 34, N-adamantan-2-yl-2,3-dihydro-4H-1,4-benzoxazine-4-carboxamide], the pIC50 was 8.96.

As to `CO[C@]12CC3CC(C1)[C@@H](NC(=O)N1CCCc4ccccc41)C(C3)C2` [Compound 8, N-(E-1-methoxyadamantan-4-yl)-3,4-dihydroquinoline-1(2H)-carboxamide], the pIC50 was 9.05.

Take `Cc1cccc2c1N(C(=O)N[C@H]1C3CC4CC1C[C@](O)(C4)C3)CCO2` [Compound 25, N-(E-5-hydroxyadamantan-2-yl)-5-methyl-2,3-dihydro-4H-1,4-benzoxazine-4-carboxamide]: the pIC50 was 8.96.

Take `CO[C@]12CC3CC(C1)[C@@H](NC(=O)N1CCOc4ccccc41)C(C3)C2` [Compound 40, N-(E-1-methoxyadamantan-4-yl)-2,3-dihydro-4H-1,4-benzoxazine-4-carboxamide]: the pIC50 is 8.96.

In turn, `O=C(N[C@H]1C2CC3CC1C[C@](O)(C3)C2)N1CCc2ccccc21` [Compound A-6, N—[E-1-hydroxyadamantan-4-yl]-2,3-dihydro-1H-indole-1-carboxamide] gave a pIC50 of 8.08.

For `COC(=O)c1ccc2c(c1)N(C(=O)N[C@H]1C3CC4CC1C[C@](O)(C4)C3)CCO2` [Compound 20, methyl 4-[(E-5-hydroxyadamantan-2-yl)carbamoyl]-3,4-dihydro-2H-1,4-benzoxazine-6-carboxylate], the negative-log IC50 (pIC50) was 8.17. This pIC50 and that of the molecule before are within 0.2 log units of each other.

Regarding `O=C(N[C@H]1C2CC3CC1C[C@](O)(C3)C2)N1CCCc2c(F)cccc21` [Compound 1, 5-fluoro-N-(E-1-hydroxyadamantan-4-yl)-3,4-dihydroquinoline-1(2H)-carboxamide], the pIC50 is 9.00.

As for `O=C(N[C@H]1C2CC3CC1C[C@](F)(C3)C2)N1CCCc2ccccc21` [Compound 12, N-(E-1-fluoroadamantan-4-yl)-3,4-dihydroquinoline-1(2H)-carboxamide], the pIC50 is 9.00.

`O=C(N[C@H]1C2CC3CC1C[C@](O)(C3)C2)N1CCCc2cc(Cl)ccc21` [Compound A-2, 6-chloro-N-[E-1-hydroxyadamantan-4-yl]-3,4-dihydroquinoline-1(2H)-carboxamide] had a pIC50 of 9.05.

For `N#Cc1ccc2c(c1)CCCN2C(=O)N[C@H]1C2CC3CC1C[C@](O)(C3)C2` [Compound 7, 6-cyano-N-(E-1-hydroxyadamantan-4-yl)-3,4-dihydroquinoline-1(2H)-carboxamide], the pIC50 is 8.55.

Regarding `O=C(N[C@H]1C2CC3CC1C[C@](O)(C3)C2)N1CCCc2ccccc21` [Compound A-1, N-[E-1-hydroxyadamantan-4-yl]-3,4-dihydroquinoline-1(2H)-carboxamide], the pIC50 was 9.15.

Turning to `CS(=O)(=O)[C@]12CC3CC(C1)[C@@H](NC(=O)N1CCOc4ccccc41)C(C3)C2` [Compound 41, N-(E-1-methylsulfonyladamantan-4-yl)-2,3-dihydro-4H-1,4-benzoxazine-4-carboxamide], the pIC50 was 7.46.

In the case of `O=C(OC1C2CC3CC1CC(O)(C3)C2)N1CCCc2ccccc21` (stereo not shown) [Compound 18b, E-5-hydroxyadamantan-2-yl 3,4-dihydroquinoline-1(2H)-carboxylate], the pIC50 is 9.05. This pIC50 is 1.59 log units higher than that of the molecule before.

For `O=C(NC1C2CC3CC(C2)CC1C3)N1CCCc2ccccc21` (stereo not shown) [Compound A-5, N-adamantan-2-yl-3,4-dihydroquinoline-1(2H)-carboxamide], the pIC50 was 8.82.

`COc1ccc2c(c1)N(C(=O)N[C@H]1C3CC4CC1C[C@](O)(C4)C3)CCC2` [Compound 5, N-(E-1-hydroxyadamantan-4-yl)-7-methoxy-3,4-dihydroquinoline-1(2H)-carboxamide] showed a pIC50 of 8.92.

Turning to `NC(=O)[C@]12CC3CC(C1)[C@@H](NC(=O)N1CCOc4ccccc41)C(C3)C2` [Compound 37b, N-[E-5-carbamoyladamantan-2-yl]-2,3-dihydro-4H-1,4-benzoxazine-4-carboxamide], the pIC50 is 9.22. This pIC50 lies 0.30 log units higher than the previous one.

`O=C(N[C@H]1C2CC3CC1C[C@](O)(C3)C2)N1CCCc2cc(F)ccc21` [Compound 2, 6-fluoro-N-(E-1-hydroxyadamantan-4-yl)-3,4-dihydroquinoline-1(2H)-carboxamide] showed a pIC50 of 9.05. This pIC50 and that of the molecule before are within 0.2 log units of each other.

As to `Cc1ccc2c(c1)OCCN2C(=O)N[C@H]1C2CC3CC1C[C@](O)(C3)C2` [Compound 23, N-(E-5-hydroxyadamantan-2-yl)-7-methyl-2,3-dihydro-4H-1,4-benzoxazine-4-carboxamide], the negative-log IC50 (pIC50) is 8.96. This pIC50 and that of the molecule before are within 0.2 log units of each other.

Consider `CN1CCN(C(=O)N[C@H]2C3CC4CC2C[C@](O)(C4)C3)c2ccccc21` [Compound 33, N-(E-5-hydroxyadamantan-2-yl)-4-methyl-3,4-dihydroquinoxaline-1(2H)-carboxamide hydrochloride], for which the pIC50 was 8.85.
